Experimental data reported in ChEMBL document CHEMBL3867478, “ProTides of BVdU as potential anticancer agents upon efficient intracellular delivery of their activated metabolites” (Bioorg Med Chem Lett, 2016).

assay: Drug level in pH 7.6 trizma buffer treated with 5 mg (E)-5-(2-bromovinyl)-2'-deoxyuridine-5'-(1-naphthyl(methoxy-L-tryptophanyl)-phosphate assessed as carboxypeptidase Y (unknown origin)-mediated compound formation measured every 7 mins for 14 hrs by [31P]-NMR spectroscopic analysis; assay type: ADME; settings: pH 7.6, 14 h

Row | Compound | Drug metabolism
1 | O=C(O)C(Cc1c[nH]c2ccccc12)NP(=O)(OC[C@H]1O[C@@H](n2cc(/C=C/Br)c(=O)[nH]c2=O)C[C@@H]1O)Oc1cccc2ccccc12 (stereo partly drawn) | Metabolite_Detected
2 | O=C1OP(=O)(OC[C@H]2O[C@@H](n3cc(/C=C/Br)c(=O)[nH]c3=O)C[C@@H]2O)NC1Cc1c[nH]c2ccccc12 (stereo partly drawn) | Metabolite_Detected
3 | O=C(O)C(Cc1c[nH]c2ccccc12)NP(=O)(O)OC[C@H]1O[C@@H](n2cc(/C=C/Br)c(=O)[nH]c2=O)C[C@@H]1O (stereo partly drawn) | Metabolite_Detected
